Tests used:
[1] = Stability in mouse plasma (LC-MS/MS); type: in vitro ADME; settings: for half-life at 5 μM: mouse, 37° C.
[2] = molecular target: ANO1 (Homo sapiens (Human), UniProt Q5XXA6); test: Selective inhibition of ANO1 over ANO2 (Table 1), ANO1 IC50; type: cell-based
[3] = molecular target: T1, ANO2 (Homo sapiens (Human), UniProt Q9NQ90); test: Selective inhibition of ANO1 over ANO2 (Table 1), ANO2 IC50; type: cell-based
[4] = system: PC-3 cells highly expressing ANO1; test: MTS cell viability, PC-3 cells highly expressing ANO1; type: cell-based; settings: MTS assay, 24 hours
Procedure: (§1) The cell viability was determined by the MTS assay (mean±S.E., n=4; * P<0.05, ** P<0.01, *** P<0.001).
(§2) 24 hours later, after adding 20 μL of an MTS solution to each well and culturing at 37° C. for 30 minutes under 5% CO2, absorbance was measured at 490 nm using a microplate reader.
(§3) In FIG. 2B, PC-3 cells were treated with the [Chemical Formula 5] compound at different concentrations in the same manner as in FIG. 2A. […] After adding 20 μL of an MTS solution to each well and culturing at 37° C. for 30 minutes under 5% CO2, absorbance was measured at 490 nm using a microplate reader.

[5] = system: PC-3 cells not expressing ANO1; test: MTS cell viability, PC-3 cells not expressing ANO1; type: cell-based; settings: MTS assay, 24 hours
Procedure: as §1, §2, §3

[6] = system: MCF7 breast cancer cells; test: MTS cell viability, MCF7 breast cancer cells highly expressing ANO1; type: cell-based; settings: MTS assay, 24 hours
Procedure: (§4) The cell viability was determined by the MTS assay (mean±S.E., n=4).
as §2

[7] = system: BxPC3 pancreatic cancer cells; test: MTS cell viability, BxPC3 pancreatic cancer cells highly expressing ANO1; type: cell-based; settings: MTS assay, 24 hours
Procedure: as §4, §2

[8] = molecular target: ANO1 (TMEM16A) (Homo sapiens (Human), UniProt Q5XXA6); test: Short-circuit current (apical membrane current) in FRT cells expressing ANO1; type: cell-based
ANO1 (TMEM16A), sequence (Q5XXA6 whole entry, species assumed): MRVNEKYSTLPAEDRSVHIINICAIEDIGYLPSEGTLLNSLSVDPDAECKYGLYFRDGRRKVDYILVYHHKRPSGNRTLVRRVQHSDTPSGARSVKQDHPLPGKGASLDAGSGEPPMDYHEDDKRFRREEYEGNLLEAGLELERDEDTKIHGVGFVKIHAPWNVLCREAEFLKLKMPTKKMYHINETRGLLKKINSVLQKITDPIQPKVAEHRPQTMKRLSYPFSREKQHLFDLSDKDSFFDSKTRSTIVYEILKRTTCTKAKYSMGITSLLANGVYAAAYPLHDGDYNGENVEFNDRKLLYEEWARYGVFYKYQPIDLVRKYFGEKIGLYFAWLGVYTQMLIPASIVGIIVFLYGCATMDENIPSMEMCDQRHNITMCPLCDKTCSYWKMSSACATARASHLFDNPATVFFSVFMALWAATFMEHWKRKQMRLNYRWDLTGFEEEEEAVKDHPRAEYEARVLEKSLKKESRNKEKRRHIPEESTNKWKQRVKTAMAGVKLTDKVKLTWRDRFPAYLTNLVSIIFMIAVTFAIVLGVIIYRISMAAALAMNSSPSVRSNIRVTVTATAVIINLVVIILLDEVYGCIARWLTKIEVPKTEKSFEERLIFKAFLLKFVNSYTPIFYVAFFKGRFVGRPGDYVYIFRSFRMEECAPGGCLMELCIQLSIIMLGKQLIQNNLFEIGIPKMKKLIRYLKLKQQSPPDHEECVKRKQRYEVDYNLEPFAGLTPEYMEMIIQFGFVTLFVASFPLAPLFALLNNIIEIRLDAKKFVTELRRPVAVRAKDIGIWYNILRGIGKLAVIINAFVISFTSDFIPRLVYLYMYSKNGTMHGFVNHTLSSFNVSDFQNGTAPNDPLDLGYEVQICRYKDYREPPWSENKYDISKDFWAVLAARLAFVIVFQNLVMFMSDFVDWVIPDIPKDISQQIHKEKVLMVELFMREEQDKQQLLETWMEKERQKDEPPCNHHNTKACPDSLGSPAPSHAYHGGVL
Procedure: Specifically, Fischer rat thyroid (FRT) cells expressing ANO1 were differentiated by culturing in DMEM/Ham's F12 medium in Transwell for 5 days and then short-circuit current was measured using an Ussing chamber. Then, a regular HCO^3− solution (120 mM NaCl, 5 mM KCl, 1 mM MgCl2, 2.5 mM HEPES, 1 mM CaCl2, 10 mM glucose, 25 mM NaHCO3) was added to a basolateral bath of the Ussing chamber, and a luminal bath was stabilized for 20 minutes by creating a Cl^− gradient by maintaining at 70 mM Cl^−. Then, after treating with the [Chemical Formula 5] compound at different concentrations (0, 0.003, 0.01, 0.03, 0.1, 0.3, 1.0 μM) and carrying out reaction for 20 minutes, ATP (100 μM) was added and the inhibitory effect for Cl^− secretion was measured through ANO1 activity.

[9] = molecular target: T1, ANO2; test: Short-circuit current in FRT cells expressing ANO2; type: cell-based
[10] = molecular target: human WT-CFTR (Homo sapiens (Human), UniProt P13569); test: Short-circuit current in FRT cells expressing CFTR; type: cell-based
human WT-CFTR, sequence (P13569 whole entry): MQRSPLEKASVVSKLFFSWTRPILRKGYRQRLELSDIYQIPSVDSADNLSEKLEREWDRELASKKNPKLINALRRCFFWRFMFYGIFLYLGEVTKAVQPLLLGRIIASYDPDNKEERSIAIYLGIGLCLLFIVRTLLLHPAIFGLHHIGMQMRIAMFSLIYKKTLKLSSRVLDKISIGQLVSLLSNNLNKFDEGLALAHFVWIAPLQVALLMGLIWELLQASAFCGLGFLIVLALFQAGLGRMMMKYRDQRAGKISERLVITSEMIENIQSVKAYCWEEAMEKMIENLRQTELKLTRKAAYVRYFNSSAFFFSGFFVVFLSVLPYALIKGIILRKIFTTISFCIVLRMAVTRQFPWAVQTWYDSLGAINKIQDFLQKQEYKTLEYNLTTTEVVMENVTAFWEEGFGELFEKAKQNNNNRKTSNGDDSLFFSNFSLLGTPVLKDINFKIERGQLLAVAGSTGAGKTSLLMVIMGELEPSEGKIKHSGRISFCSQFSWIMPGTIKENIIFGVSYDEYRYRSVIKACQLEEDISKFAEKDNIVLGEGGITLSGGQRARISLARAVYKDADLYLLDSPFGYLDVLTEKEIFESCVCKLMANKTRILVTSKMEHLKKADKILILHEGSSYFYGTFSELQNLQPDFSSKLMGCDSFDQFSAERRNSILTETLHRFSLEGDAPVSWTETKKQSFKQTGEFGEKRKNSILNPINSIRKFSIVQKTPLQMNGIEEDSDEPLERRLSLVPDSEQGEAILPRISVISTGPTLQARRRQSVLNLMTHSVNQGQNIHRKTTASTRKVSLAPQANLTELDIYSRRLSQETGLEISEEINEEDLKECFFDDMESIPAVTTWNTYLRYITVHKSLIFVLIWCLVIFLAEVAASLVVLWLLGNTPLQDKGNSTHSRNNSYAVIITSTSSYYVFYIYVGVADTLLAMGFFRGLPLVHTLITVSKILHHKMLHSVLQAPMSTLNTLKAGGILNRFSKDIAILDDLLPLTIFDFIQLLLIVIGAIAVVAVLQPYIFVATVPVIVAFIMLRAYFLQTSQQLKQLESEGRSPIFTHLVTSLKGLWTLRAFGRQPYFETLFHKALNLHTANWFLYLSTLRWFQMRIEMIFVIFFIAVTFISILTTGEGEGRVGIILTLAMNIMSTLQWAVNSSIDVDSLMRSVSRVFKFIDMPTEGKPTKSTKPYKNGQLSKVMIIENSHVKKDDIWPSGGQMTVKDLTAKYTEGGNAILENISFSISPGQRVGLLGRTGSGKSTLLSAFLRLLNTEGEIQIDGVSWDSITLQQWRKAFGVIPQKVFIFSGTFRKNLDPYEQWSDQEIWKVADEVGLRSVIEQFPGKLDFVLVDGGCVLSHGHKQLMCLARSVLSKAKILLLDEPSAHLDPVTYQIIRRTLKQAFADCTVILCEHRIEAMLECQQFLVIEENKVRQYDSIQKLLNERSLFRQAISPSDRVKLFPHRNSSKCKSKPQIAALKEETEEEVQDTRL

[11] = system: ANO1 protein in PC-3 cells; test: Western blot of ANO1 protein level in PC-3 cells expressing ANO1 at high level; type: cell-based; settings: for decrease of the expression level of ANO1: PC-3 cells
[12] = system: smooth muscle of the mouse ileum; test: Contraction of smooth muscle using mouse ileal section

T1 sequence (Q9NQ90 other isoform, or with tags, fused parts or gaps, species assumed): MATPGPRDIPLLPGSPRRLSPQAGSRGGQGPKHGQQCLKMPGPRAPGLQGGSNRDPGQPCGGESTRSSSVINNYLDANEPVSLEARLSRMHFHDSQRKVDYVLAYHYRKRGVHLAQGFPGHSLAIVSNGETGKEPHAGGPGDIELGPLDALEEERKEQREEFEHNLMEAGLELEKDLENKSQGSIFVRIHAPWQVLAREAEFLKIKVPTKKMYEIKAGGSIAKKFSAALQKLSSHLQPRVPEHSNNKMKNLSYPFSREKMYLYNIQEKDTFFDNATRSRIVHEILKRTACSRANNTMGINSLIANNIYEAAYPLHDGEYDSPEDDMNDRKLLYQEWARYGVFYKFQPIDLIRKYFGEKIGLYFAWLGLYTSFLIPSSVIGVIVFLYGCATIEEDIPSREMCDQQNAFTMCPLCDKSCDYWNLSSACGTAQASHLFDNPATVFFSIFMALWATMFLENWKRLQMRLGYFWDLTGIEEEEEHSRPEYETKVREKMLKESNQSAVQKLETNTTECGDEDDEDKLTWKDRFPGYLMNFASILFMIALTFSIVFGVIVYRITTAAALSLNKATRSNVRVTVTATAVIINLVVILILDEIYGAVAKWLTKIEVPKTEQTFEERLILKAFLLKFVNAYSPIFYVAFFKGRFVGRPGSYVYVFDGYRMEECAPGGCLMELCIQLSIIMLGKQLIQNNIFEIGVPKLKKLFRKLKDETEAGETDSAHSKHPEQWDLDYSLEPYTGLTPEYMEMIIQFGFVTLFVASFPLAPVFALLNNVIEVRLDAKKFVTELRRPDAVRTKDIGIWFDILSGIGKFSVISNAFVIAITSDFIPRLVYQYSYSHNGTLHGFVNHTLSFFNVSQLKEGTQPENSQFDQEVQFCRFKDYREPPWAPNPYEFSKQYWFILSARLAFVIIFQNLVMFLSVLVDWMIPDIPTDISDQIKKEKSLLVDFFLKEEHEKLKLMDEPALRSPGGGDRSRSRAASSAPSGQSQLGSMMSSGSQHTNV
ANO1, sequence (Q5XXA6 whole entry, species assumed): as the sequence (Q5XXA6 whole entry, species assumed) above

| IC50 [2] | IC50 [3] | Molecule | other results |
| --- | --- | --- | --- |
|  |  | COc1ccccc1/C=N/NC(=O)COc1ccc(Cl)cc1C [Ani9, reference compound] | plasma stability [1]: low; half-life at 5 μM [1]: 0.533 h |
| > 100 µM | > 100 µM | COc1ccccc1/C=N/NC(=O)c1cc2cc(Cl)ccc2o1 [Comparative Example 1] |  |
| > 100 µM | > 100 µM | COc1ccccc1-c1nnc(-c2cc3cc(Cl)ccc3o2)o1 [Comparative Example 2] |  |
| > 100 µM |  | COc1cccc(/C=N/NC(=O)COc2ccc(Cl)cc2C)c1 [Comparative Example 3] |  |
| > 100 µM | > 100 µM | COc1cccc(-c2nnc(COc3ccc(Cl)cc3C)o2)c1 [Comparative Example 4] |  |
| > 100 µM |  | Cc1cc(Cl)ccc1OCC(=O)N/N=C/c1cccc(F)c1 [Comparative Example 5] |  |
| > 100 µM | > 100 µM | Cc1cc(Cl)ccc1OCc1nnc(-c2cccc(F)c2)o1 [Comparative Example 6] |  |
| > 100 µM | > 100 µM | Cc1cc(Cl)ccc1OCc1nnc(-c2ccccc2C(F)(F)F)o1 [Comparative Example 7] |  |
| > 100 µM |  | Cc1cc(Cl)ccc1OCc1nnc(-c2ccccc2OC(F)(F)F)o1 [Comparative Example 8] |  |
| > 100 µM |  | Cc1cc(Cl)ccc1OCC(=O)N/N=C/c1cccc(OC(F)(F)F)c1 [Comparative Example 9] | ANO1 inhibitory activity (in words) [2]: not to inhibit ANO1; effect on cell viability of PC-3 cells highly expressing ANO1 [4]: insignificant effect; effect on cell viability of PC3 cells not expressing ANO1 [5]: insignificant effect; effect on cell viability of MCF7 breast cancer cells highly expressing ANO1 [6]: insignificant effect; effect on cell viability of BxPC3 pancreatic cancer cells highly expressing ANO1 [7]: insignificant effect |
| > 100 µM |  | Cc1cc(Cl)ccc1OCc1nnc(-c2cccc(OC(F)(F)F)c2)o1 [Comparative Example 10] |  |
| > 100 µM |  | Cc1cc(Cl)ccc1OCc1nnc(-c2ccccn2)o1 [Comparative Example 11] |  |
| > 100 µM | > 100 µM | CCOC(=O)c1cc2ccccn2c1/C=N/NC(=O)COc1ccc(Cl)cc1C [Comparative Example 12] |  |
| > 100 µM |  | Cc1cc(Cl)ccc1OCC(=O)N/N=C1/C(=O)N(C)c2ccccc21 [Comparative Example 13] |  |
| > 100 µM |  | Cc1cc(Cl)ccc1OCC(=O)N/N=C1\CCOc2ccccc21 [Comparative Example 14] |  |
| > 100 µM | > 100 µM | Cc1cc(Cl)ccc1OCC(=O)Nc1nc2ccccc2s1 [Comparative Example 15] |  |
| > 100 µM |  | COC(=O)c1sc(NC(=O)COc2ccc(Cl)cc2C)nc1C [Comparative Example 16] |  |

| IC50 [2] | IC50 [3] | Molecule | other results |
| --- | --- | --- | --- |
| > 100 µM |  | Cc1cc(Cl)ccc1OC(C)C(=O)N/N=C/c1ccccc1OC(F)(F)F (stereo not shown) [Comparative Example 17] |  |
|  | > 100 µM | Cc1cc(Cl)ccc1OC(C)(C)C(=O)N/N=C/c1ccccc1OC(F)(F)F [Comparative Example 18] |  |
| > 100 µM | > 100 µM | Cc1cc(Cl)ccc1OC(F)(F)C(=O)N/N=C/c1ccccc1OC(F)(F)F [Comparative Example 19] |  |
| 0.021 ± 0.005 µM |  | Cc1cc(Cl)ccc1OCC(=O)N/N=C/c1ccccc1OC(F)(F)F [Example 1] | ANO1 inhibitory activity (in words) [2]: strongest ANO1 inhibitory activity; inhibition of ANO1 activity as compared to Ani9 [8]: ≥ 4 times; IC50 ([8]; FRT cells expressing ANO1, short-circuit current, ATP 100 μM): 0.022 µM; inhibition at 100 µM [9]: 17.1%; inhibition of the activity of CFTR ([10]; 100 μM, forskolin-activated CFTR): did not inhibit; effect on cell viability of PC-3 cells highly expressing ANO1 [4]: selectively inhibited the growth of the PC-3 cells highly expressing ANO1 in a concentration-dependent manner; plasma stability [1]: higher stability in the mouse plasma than Ani9; half-life at 5 μM [1]: 1.73 h; reduction of ANO1 expression level as compared to Ani9 ([11]; 3 μM): about 11.5 times; decrease of the expression level of ANO1 ([11]; 3 μM): 59.8±4.6%; reduction of ANO1 expression level as compared to Ani9 ([11]; 10 μM): ~2.28 times; decrease of the expression level of ANO1 ([11]; 10 μM): 66.5±4.7%; effect on cell viability of MCF7 breast cancer cells highly expressing ANO1 [6]: selectively inhibited the growth; effect on cell viability of BxPC3 pancreatic cancer cells highly expressing ANO1 [7]: selectively inhibited the growth; contraction frequency of smooth muscle [12]: no effect; contraction of smooth muscle of the mouse ileum [12]: strongly inhibited; decrease of maximum contraction intensity of smooth muscle ([12]; 300 nM): 53.3%; decrease of maximum contraction intensity of smooth muscle ([12]; 1 μM): 68.8% |
| 10.7 ± 0.14 µM | > 100 µM | COc1ccccc1CNNC(=O)COc1ccc(Cl)cc1C [Example 2] |  |
| 19.4 ± 0.01 µM | 12.4 ± 0.05 µM | COc1ccccc1-c1nnc(COc2ccc(Cl)cc2C)o1 [Example 3] |  |
| 21.2 ± 0.17 µM | > 100 µM | Cc1cc(Cl)ccc1OCc1nnc(-c2ccccc2F)o1 [Example 4] |  |
| 0.21 ± 0.04 µM |  | Cc1cc(Cl)ccc1OCC(=O)N/N=C/c1ccccc1C(F)(F)F [Example 5] |  |
| 0.3 ± 0.02 µM | > 100 µM | C/C(=N\NC(=O)COc1ccc(Cl)cc1C)c1ccccc1OC(F)(F)F [Example 6] | ANO1 inhibitory activity (in words) [2]: slightly weaker inhibitory activity than the compound of Example 1; reduction of ANO1 expression level as compared to Ani9 ([11]; 10 μM): about 1.21 times; decrease of the expression level of ANO1 ([11]; 10 μM): 28.9±0.9% |
| 25.7 ± 0.01 µM |  | Cc1cc(Cl)ccc1OCC(=O)N/N=C/c1ccco1 [Example 8] |  |
| 63.8 ± 0.02 µM | > 100 µM | Cc1cc(Cl)ccc1OCc1nnc(-c2ccco2)o1 [Example 9] |  |
| 31.3 ± 0.57 µM | > 100 µM | Cc1cc(Cl)ccc1OCC(=O)N/N=C/c1ccccn1 [Example 10] |  |
| 20.6 ± 0.02 µM | 13.1 ± 0.07 µM | COc1ccccc1CNC(=O)COc1ccc(Cl)cc1C [Example 11] |  |
| 53.7 ± 0.05 µM | > 100 µM | COc1cccc(CNC(=O)COc2ccc(Cl)cc2C)c1 [Example 12] |  |
| 14.2 ± 0.07 µM |  | Cc1cc(Cl)ccc1OCC(=O)Nc1nc2cc(Cl)ccc2o1 [Example 13] | reduction of ANO1 expression level as compared to Ani9 ([11]; 10 μM): ~2.05 times; decrease of the expression level of ANO1 ([11]; 10 μM): 48.8±2.9% |
| 14.8 ± 0.01 µM | > 100 µM | CCOC(=O)c1csc(NC(=O)COc2ccc(Cl)cc2C)n1 [Example 14] |  |
|  |  | CFTRinh-172 [reference compound] | inhibition of CFTR ([10]; 10 μM): completely inhibited |

| Molecule | IC50 [2] | IC50 [3] | other results |
| --- | --- | --- | --- |
| CCOC(=O)C(F)Oc1ccccc1/C=N/NC(=O)COc1ccc(Cl)cc1C (stereo not shown) [Example 7] | 15.7 ± 0.01 µM | 59.4 ± 0.45 µM |  |

Source: US11274074B2, “Pharmaceutical composition for ANO1 antagonist with anticancer activity” (INDUSTRY-ACADEMIC COOPERATION FOUNDATION, YONSEI UNIVERSITY, priority 2018, dated 2022)
